The record followed here is patent US9556169B2, “Compounds and compositions for the treatment of parasitic diseases” (NOVARTIS AG, priority 2012, dated 2017).

Each structure is given as a SMILES string.

For assay [1], the system named is P. falciparum (NF54 or 3D7 strain). The assay can be described thus: P. falciparum proliferation assay in infected human blood cells (SYBR Green). Type of assay: cell-based. Particulars: Plasmodium falciparum, Erythrocyte; infected human erythrocytes, 72 hours, SYBR Green fluorescence; read-out: EC50 (nM), inhibitory efficacy in delaying P. falciparum proliferation in infected human blood cells. The essentials: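 Asexual NF54 or 3D7 parasites in O+ human erythrocytes (final 2.5% hematocrit, 0.3% parasitemia) exposed to compound for 72 h at 37 °C under 93% N2/4% CO2/3% O2. Lysis with SYBR Green I overnight at rt; fluorescence (ex 425/em 530 nm) tracks parasite DNA, giving EC50.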

Assay [2] deals with Plasmodium yoelii (17XNL) sporozoites. Description: Liver stage P. yoelii sporozoite invasion assay in HepG2-A16-CD81EGFP cells. Type of assay: cell-based. The following applies: values without * in Table 2, HepG2-A16-CD81EGFP liver cells, 48 hours, immunofluorescence, read-out: EC50 (nM), P. yoelii Sporozoite Invasion Assay. From the text:
Assay for Proliferation of Parasite in Infected Liver Cells
Compounds of the invention can be assayed to measure their capacity to inhibit proliferation of parasites in liver cells. The proliferation is quantified by determine the number of infected cells by immunofluorescence.
Due to the difficulty of successfully infecting immortalized human liver cell lines with the human malaria sporozoites (liver-stage parasite), rodent malaria sporozoites from Plasmodium yoelii (17XNL) and P. berghei (ANKA) are the preferred surrogate. Sporozoites are obtained from Anopheles stephensi mosquitoes supplied by the New York University Insectary, which ships the malaria-infected mosquitoes 10-13 days following the ingestion of an infective blood meal.
A transgenic HepG2 cell line expressing the tetraspanin CD81 receptor (HepG2-A16-CD81^EGFP) is used to increase the infectivity rate of rodent-malaria sporozoites into human cells. HepG2-A16-CD81^EGFP cells are stably transformed to express a GFP-CD81 fusion protein. A continuous in vitro culture of this line was maintained at 37° C. in 4% CO2 in complete media (CM) which contains: DMEM (Invitrogen, Carlsbad, USA) supplemented with 10% FCS, 0.29 mg/ml glutamine, 100 units penicillin and 100 μg/ml streptomycin (SigmaAldrich, USA).
Liver Stage P. yoelii Sporozoite Invasion Assay
Twenty to twenty-six hours prior to sporozoite infection, 7.5×10^3 HepG2-A16-CD81^EGFP cells are seeded into 384-well plates (Aurora 384 IQ-EB black plates with clear bottoms; 50 μl of 1.5×10^5 cells/ml in CM). These plates are incubated at 37° C. with 4% CO2 overnight. Two hours prior to infection, 50 nl of compound dissolved in DMSO (0.1% final DMSO concentration per well) were transferred with a PinTool (GNF Systems) into the assay plates (10 μM final concentration). A 1:3 serial dilution of atovaquone (10 μM at the highest final concentration) and wells treated only with DMSO were used as positive and negative controls, respectively.
Freshly dissected salivary glands from infected mosquitoes were homogenized in a glass tissue grinder, filtered twice through Nylon cell strainers (40 μm pore size, BD Falcon) and counted using a hemocytometer. The assay plate with HepG2-A16-CD81^EGFP cells and compound were then infected with 8×10^3 sporozoitesper well and the plates are subjected to a centrifugal force of 650×g to pellet the sporozoites onto the liver cell monolayer. The assay plate is incubated at 37° C. for 2 hours to permit sporozoite invasion, then the media is aspirated from the media plate, and replaced with 50 μl CM (containing a 5× concentration of penicillin/streptomycin; 500 units penicillin and 0.5 mg streptomycin per ml) per well. 50 nl of compound is re-introduced by PinTool and the assay plate incubated for 48 hours at 37° C. before quantification of infected cells by immunofluorescence.
Atovaquone and uninfected wells were used as controls on each plate. Two replicate plates are tested for each assay.
After fixing the cells by addition of 12.5 μl of 20% solution of paraformaldehyde (EMS, Hatfield, USA) to each assay well (4% final formaldehyde concentration), membranes were permeabilized with 0.5% Triton-X-100 (Thermo Fisher Scientific) and EEFs were stained using a mouse polyclonal serum raised against the Plasmodium yoelii heat shock protein 70 (PyHSP70), a DyLight 649 goat anti-mouse IgG, Fc(gamma) fragment specific secondary antibody (Jackson Immuno Research, Cat#115-495-071) and the Hoechst 33342 nucleic acid dye (Invitrogen, Carlsbad, USA). Stained EEFs were then quantified using the Opera Confocal High Content Screening System (Perkin Elmer, Waltham, USA). Images were collected using a 20× objective lens (20×/0.45 NA, LWD Plan Fluor, Olympus) at a binning of 2, using a 365 nm Xeon arc lamp illumination to detect the Hoechst-labeled nuclei and 635 nm laser line to excite DyLight649-labeled parasites. The image resolution yielded was approximately 0.66 μm/pixel (˜0.43 μm 2/pixel). […]

Consider `CNCCNC(=O)c1ccc(-c2cnn3ccc(C(=O)N(C)c4ccc(C#N)cn4)cc23)cc1` [Example 114, N-(5-Cyanopyridin-2-yl)-N-methyl-3-(4-((2-(methylamino)ethyl)carbamoyl)phenyl)pyrazolo[1,5-a]pyridine-5-carboxamide], for which the EC50 in assay [1] came out at 52 nM; in assay [2], 950 nM.

As for `CNC(=O)c1ccc(-c2cnn3ccc(C(=O)N(C)c4ccc(Cl)cc4)cc23)cc1` [Example 99, N-(4-Chlorophenyl)-N-methyl-3-(4-(methylcarbamoyl)phenyl)pyrazolo[1,5-a]pyridine-5-carboxamide], the EC50 in assay [1] was determined as 1 nM; in assay [2], 15 nM.

Turning to `CNC(=O)c1ccc(-c2cnn3ccc(C(=O)N(C)c4ccc(C#N)cc4)cc23)cn1` [Example 97, N-(4-Cyanophenyl)-N-methyl-3-(6-(methylcarbamoyl)pyridin-3-yl)pyrazolo[1,5-a]pyridine-5-carboxamide], the EC50 was 13 nM in assay [1] and 92 nM in assay [2].

Consider `CNC(=O)c1ccc(-c2cnn3ccc(C(=O)N(C)c4ccc(C(F)(F)F)cc4)cc23)cc1` [Example 103, N-Methyl-3-(4-(methylcarbamoyl)phenyl)-N-(4-(trifluoromethyl)phenyl)pyrazolo[1,5-a]pyridine-5-carboxamide], for which the EC50 worked out at 3 nM in assay [1] and 62 nM in assay [2].

As to `CNC(=O)c1ccc(-c2cnn3ccc(C(=O)N(c4ccc(C#N)cn4)C4CC4)cc23)cc1` [Example 93, N-(5-Cyanopyridin-2-yl)-N-cyclopropyl-3-(4-(methylcarbamoyl)phenyl)pyrazolo[1,5-a]pyridine-5-carboxamide], the figures for the EC50 in assay [1] and in assay [2] were 6 nM and 10 nM, respectively.

On to `CN(C(=O)c1ccn2ncc(-c3ccc(C(=O)NCCN)cc3)c2c1)c1ccc(C#N)cn1` [Example 104, 3-(4-((2-Aminoethyl)carbamoyl)phenyl)-N-(5-cyanopyridin-2-yl)-N-methylpyrazolo[1,5-a]pyridine-5-carboxamide], for which the results for the EC50 in assay [1] and in assay [2] were 125 nM and 1200 nM, respectively.

For `CNC(=O)c1ccc(-c2cnn3ccc(C(=O)N(CC4CC4)c4ccc(C#N)cn4)cc23)cc1` [Example 117, N-(5-Cyanopyridin-2-yl)-N-(cyclopropylmethyl)-3-(4-(methylcarbamoyl)phenyl)pyrazolo[1,5-a]pyridine-5-carboxamide], the results for the EC50 in assay [1] and in assay [2] were 4 nM and 7 nM, respectively.
